Experimental data as given in patent publication US6825350B2, “Sulfonamide and sulfamide substituted imidazoquinolines and methods for the treatment of periodontal disease using these and other immune response modifiers” (3M Innovative Properties Company, priority 1999, dated 2004).
Counter-ions that a name gives are not always drawn. Like-named read-outs stand apart in the source and are kept apart here.

Experiments:
[1] = test system: tumor necrosis factor (α); assay: Cytokine induction in human cells: tumor necrosis factor (α) by ELISA; assay type: cell-based; conditions: human PBMCs, 18 to 24 hours incubation, ELISA of culture supernatant, read-out: Lowest Effective Concentration (μM) Tumor Necrosis Factor
interferon (α) = assay: Cytokine induction in human cells: interferon (α) by ELISA; assay type: cell-based; conditions: human PBMCs, 18 to 24 hours incubation, ELISA of culture supernatant, read-out: Lowest Effective Concentration (μM) Interferon

| Structure (SMILES) | minimal effective concentration ([1]; Homo sapiens, PBMC) [µM] | minimal effective concentration (interferon (α); Homo sapiens, PBMC) [µM] | minimal effective concentration [1] [µM] | minimal effective concentration (interferon (α)) [µM] |
| --- | --- | --- | --- | --- |
| Cc1cc(C)c(S(=O)(=O)NCCCCn2cnc3c(N)nc4c(c32)CCCC4)c(C)c1 [Example 63] | > 30 | > 30 |  |  |
| CCOCc1nc2c(N)nc3ccccc3c2n1CCNS(=O)(=O)c1cccs1 [Example 109] | 10 | 1 |  |  |
| CCCCc1nc2c(N)nc3ccccc3c2n1CCCCNS(=O)(=O)c1ccc(C(C)(C)C)cc1 [Example 47] | > 30 | 0.37 |  |  |
| CCCCc1nc2c(N)nc3c(c2n1CCCCNS(=O)(=O)C(C)C)CCCC3 [Example 203] | 1 | 0.0001 |  |  |
| CCCCc1nc2c(N)nc3ccccc3c2n1CCNS(=O)(=O)c1cccc2cccnc12 [Example 30] | > 30 | 1.11 |  |  |
| CCCCc1nc2c(N)nc3ccccc3c2n1CCNS(=O)(=O)c1cccs1 [Example 19] | 3.33 | 0.12 |  |  |
| CCCCc1nc2c(N)nc3ccccc3c2n1CCCCNS(=O)(=O)c1sc(NC(C)=O)nc1C [Example 77] | 1 | 0.001 |  |  |
| CCCCCCCCS(=O)(=O)NCCCCn1cnc2c(N)nc3c(c21)CCCC3 [Example 56] | > 30 | > 30 |  |  |
| Nc1nc2c(c3c1ncn3CCCCNS(=O)(=O)/C=C/c1ccccc1)CCCC2 [Example 68] | > 30 | 10 |  |  |
| Nc1nc2c(c3c1ncn3CCCCNS(=O)(=O)c1cccc3ccccc13)CCCC2 [Example 70] | > 30 | > 30 |  |  |
| COCCc1nc2c(N)nc3ccccc3c2n1CCCCNS(=O)(=O)c1cccc2c(N(C)C)cccc12 [Example 114] | > 10 | 0.01 |  |  |
| CCCCc1nc2c(N)nc3c(c2n1CCCCNS(=O)(=O)c1cccc2c(N(C)C)cccc12)CCCC3 [Example 206] | > 10 | 1 |  |  |
| COCCc1nc2c(N)nc3ccccc3c2n1CCCCNS(=O)(=O)c1cccs1 [Example 112] | > 10 | 0.0001 |  |  |
| CCCCc1nc2c(N)nc3ccccc3c2n1CCCCNS(=O)(=O)c1ccccc1Br [Example 78] | 0.1 | 0.001 |  |  |
| COCCc1nc2c(N)nc3ccccc3c2n1CCCCNS(=O)(=O)c1ccc(C)cc1 [Example 159] | 0.1 | 0.0001 |  |  |
| CCCCc1nc2c(N)nc3c(c2n1CCCCNS(=O)(=O)N(C)C)CCCC3 [Example 220] | 1 | 0.0001 |  |  |
| CCCCc1nc2c(N)nc3ccccc3c2n1CCNS(=O)(=O)c1cccc2c(N(C)C)cccc12 [Example 33] | 10 | 1.11 |  |  |
| CCCCc1nc2c(N)nc3ccccc3c2n1CCCCNS(=O)(=O)c1cc(Cl)ccc1OC [Example 100] | 10 | 0.01 |  |  |
| CCCCc1nc2c(N)nc3ccccc3c2n1CCCCNS(=O)(=O)c1cccc([N+](=O)[O-])c1 [Example 83] | 1 | 0.001 |  |  |

| Structure (SMILES) | minimal effective concentration ([1]; Homo sapiens, PBMC) [µM] | minimal effective concentration (interferon (α); Homo sapiens, PBMC) [µM] | minimal effective concentration [1] [µM] | minimal effective concentration (interferon (α)) [µM] |
| --- | --- | --- | --- | --- |
| CCCCc1nc2c(N)nc3ccccc3c2n1CCCCNS(=O)(=O)c1ccc(Cl)s1 [Example 101] | 10 | 0.01 |  |  |
| CCCCc1nc2c(N)nc3ccccc3c2n1CCNS(=O)(=O)c1ccc(OC)cc1 [Example 27] | 30 | 1.11 |  |  |
| CCOCc1nc2c(N)nc3ccccc3c2n1CCNS(=O)(=O)c1cccc2c(N(C)C)cccc12 [Example 110] | > 10 | 10 |  |  |
| CCCCc1nc2c(N)nc3ccccc3c2n1CCNS(=O)(=O)c1ccc(C)cc1 [Example 23] | 10 | 0.12 |  |  |
| CCCCc1nc2c(N)nc3ccccc3c2n1CCCCNS(=O)(=O)CCCC [Example 74] | 0.01 | 0.001 |  |  |
| COc1ccc(Br)cc1S(=O)(=O)NCCCCn1cnc2c(N)nc3c(c21)CCCC3 [Example 66] | 30 | > 30 |  |  |
| CCCCc1nc2c(N)nc3ccccc3c2n1CCCCNS(=O)(=O)c1ccc(F)cc1 [Example 87] | 1 | 0.001 |  |  |
| CCCCc1nc2c(N)nc3c(c2n1CCCCNS(=O)(=O)Cc1ccccc1)CCCC3 [Example 205] | 1 | 0.0001 |  |  |
| COCCc1nc2c(N)nc3ccccc3c2n1CCCCNS(=O)(=O)c1ccc(Br)cc1 [Example 152] | 10 | 0.0001 |  |  |
| CCCCc1nc2c(N)nc3ccccc3c2n1CCNS(=O)(=O)Cc1ccccc1 [Example 28] | 30 | 1.11 |  |  |
| CCCS(=O)(=O)NCCCCn1c(CCOC)nc2c(N)nc3ccccc3c21 [Example 116] | 1 | 0.001 |  |  |
| CCCCc1nc2c(N)nc3ccccc3c2n1CCCCNS(=O)(=O)C(F)(F)F [Example 53] | 3.33 | 0.01 |  |  |
| CCCCc1nc2c(N)nc3ccccc3c2n1CCCCNS(=O)(=O)c1ccc(C(F)(F)F)cc1[N+](=O)[O-] [Example 79] | 1 | 0.01 |  |  |
| CCCCc1nc2c(N)nc3ccccc3c2n1CCCCNS(=O)(=O)c1ccc(OC(F)(F)F)cc1 [Example 85] | > 10 | 1 |  |  |
| COCCc1nc2c(N)nc3ccccc3c2n1CCCCNS(=O)(=O)c1ccccc1Cl [Example 127] | 10 | 0.0001 |  |  |
| CCCCc1nc2c(N)nc3ccccc3c2n1CCCCNS(=O)(=O)c1ccc(C(=O)O)cc1 [Example 84] | 10 | 1 |  |  |
| CCCCc1ccc(S(=O)(=O)NCCCCn2c(CCCC)nc3c(N)nc4ccccc4c32)cc1 [Example 98] | > 10 | 1 |  |  |
| COCCc1nc2c(N)nc3c(c2n1CCCCNS(=O)(=O)N(C)C)CCCC3 [Example 221] | 1 | 0.0001 |  |  |
| CCOC(=O)C1CCN(S(=O)(=O)NCCCCn2c(CCOC)nc3c(N)nc4ccccc4c32)CC1 [Example 227] | > 10 | 0.001 |  |  |

| Structure (SMILES) | minimal effective concentration ([1]; Homo sapiens, PBMC) [µM] | minimal effective concentration (interferon (α); Homo sapiens, PBMC) [µM] | minimal effective concentration [1] [µM] | minimal effective concentration (interferon (α)) [µM] |
| --- | --- | --- | --- | --- |
| COCCc1nc2c(N)nc3ccccc3c2n1CCCCNS(=O)(=O)c1ccc(C#N)cc1 [Example 160] | 1 | 0.001 |  |  |
| CC(C)(C)c1ccc(S(=O)(=O)NCCCCn2cnc3c(N)nc4c(c32)CCCC4)cc1 [Example 62] | > 30 | > 30 |  |  |
| CCCCc1nc2c(N)nc3ccccc3c2n1CCCCNS(=O)(=O)c1ccc(OC)cc1 [Example 37] | 1.11 | 0.01 |  |  |
| CCCCc1nc2c(N)nc3ccccc3c2n1CCCCNS(=O)(=O)c1cccc2ccccc12 [Example 41] | > 30 | 0.01 |  |  |
| Nc1nc2c(c3c1ncn3CCCCNS(=O)(=O)c1ccccc1)CCCC2 [Example 58] | > 30 | 3.33 |  |  |
| CCCCc1nc2c(N)nc3ccccc3c2n1CCCCNS(=O)(=O)c1ccc(I)cc1 [Example 46] | > 30 | 0.37 |  |  |
| CCCCc1nc2c(N)nc3ccccc3c2n1CCCCNS(=O)(=O)c1c(F)cccc1F [Example 93] | 0.1 | 0.001 |  |  |
| COCCc1nc2c(N)nc3c(c2n1CCCCNS(=O)(=O)Cc1ccccc1)CCCC3 [Example 211] | 1 | 0.0001 |  |  |
| CCCCc1nc2c(N)nc3ccccc3c2n1CCCCNS(C)(=O)=O [Example 36] |  |  | 3.33 | 0.0015 |
| COCCc1nc2c(N)nc3c(c2n1CCCCNS(=O)(=O)C[C@@]12CCC(CC1=O)C2(C)C)CCCC3 [Example 212] | 0.01 | 0.0001 |  |  |
| CCCCc1nc2c(N)nc3ccccc3c2n1CCCCNS(=O)(=O)c1ccc(Cl)c([N+](=O)[O-])c1 [Example 86] | 1 | 0.01 |  |  |
| CCCCc1nc2c(N)nc3ccccc3c2n1CCCCNS(=O)(=O)c1ccccc1OC(F)(F)F [Example 91] | 1 | 0.01 |  |  |
| COCCc1nc2c(N)nc3c(c2n1CCCCNS(=O)(=O)c1cccc2c(N(C)C)cccc12)CCCC3 [Example 213] | 1 | 0.0001 |  |  |
| CCCCc1nc2c(N)nc3ccccc3c2n1CCCCNS(=O)(=O)c1ccc(C)cc1 [Example 40] | 3.33 | 0.0015 |  |  |
| CCCCc1nc2c(N)nc3ccccc3c2n1CCCCNS(=O)(=O)c1ccc(C)c([N+](=O)[O-])c1 [Example 97] | 10 | 0.1 |  |  |
| CCCCc1nc2c(N)nc3ccccc3c2n1CCCCNS(=O)(=O)CCC [Example 51] | 0.37 | 0.0015 |  |  |
| COCCc1nc2c(N)nc3ccccc3c2n1CCCCN(C)S(=O)(=O)c1c(C)noc1C [Example 215, N-[4-(4-Amino-2-(2-methoxyethyl)-1H-imidazo[4,5-c]quinolin-1-yl)butyl]-N-methyl-3,5-dimethylisooxazolo-4-sulfonamide Trifluoroacetate] | 1 | 0.01 |  |  |
| CCCCc1nc2c(N)nc3ccccc3c2n1CCCCNS(=O)(=O)c1cccs1 [Example 44] |  |  | 1.11 | 0.0015 |
